Broadly, the GI50 is the concentration giving 50% growth inhibition. By TGI is commonly meant the concentration giving total growth inhibition. High values mean less potent growth arrest, low ones more potent growth arrest.

Consider twelve compounds from PubChem BioAssay (NCI).

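Interpolation was linear, between the two tested concentrations surrounding the appropriate level; five concentrations were tested over 48 hours in 96-well plates. At the GI50, growth is halved. TGI: concentration producing complete growth inhibition.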 A value given as a limit tells only on which side of the number the result lay.

The first experiment deals with NCI-H522 lung. In words: DTP human tumour cell line panel, 48 h.
Turning to `OCc1ccc(N2CCCC2c2ccccc2)cc1Cl` (centres undefined), the GI50 was 5.18 µM and the total growth inhibition concentration (TGI) is 18.6 µM.

The compound `COC1C=COC2(C)Oc3c(C)c(O)c4c(c3C2=O)/C(=N/C2CCC(O)OC2C)C=C(NC(=O)/C(C)=C\C(=O)C2CC2C(O)C(C)C(O)C(C)C(OC(C)=O)C1C)C4=O` (centres undefined) registered a TGI of 2.79 µM.

With `CC(=O)/C=C/c1cn(C(=O)OC(C)(C)C)c2ccc(Br)cc12`, the GI50 was 17.7 µM and the TGI worked out at 63.3 µM.

With `CCOc1ccccc1C(=O)N1CCN(c2cc(Cl)cc(Cl)c2)CC1`, the GI50 was 0.0142 µM and the total growth inhibition concentration (TGI) was 0.358 µM.

As for `COc1cc2c(cc1C1COc3cc4occc4cc3C1=O)OCO2` (centres undefined), the TGI is more than 100 µM.

`Cc1cc(S(=O)(=O)/N=C(/N)Nc2ccccc2O)c(SCc2ccccc2)cc1Cl`: the GI50 was 9.68 µM and the concentration for total growth inhibition (TGI) worked out at 27.1 µM.

Consider `O=C1CCC(N2Cc3cc(CNC(=O)C(F)(F)c4ccc(Cl)cc4)ccc3C2=O)C(=O)N1` (centres undefined), for which the GI50 is more than 66.1 µM and the concentration for total growth inhibition (TGI) was more than 100 µM.

In the case of `O=C(O)CN1CCN(CC(=O)O)CC(=O)[O][Hg][O]C(=O)C1`, the GI50 was 6.75 µM and the concentration for total growth inhibition (TGI) is more than 47.6 µM.

Take `O=C1/C(=C/c2ccccc2[N+](=O)[O-])Cc2ccccc21`: the GI50 was 1.7 µM and the TGI is 3.13 µM.

On to `O=C(OCc1ccc2ccccc2n1)c1cn(C2CC2)c2cc(N3CCN(Cc4ccc5ccccc5n4)CC3)c(F)cc2c1=O`, for which the GI50 is more than 94.3 µM and the concentration for total growth inhibition (TGI) is more than 100 µM.

For `O=C(O)c1ccc(C(=O)c2ccccc2)c(C(=O)O)c1`, the TGI was more than 100 µM.

`Cc1ccc(/C=N\NC(=O)c2[nH]c3ccc(F)cc3c2-c2ccccc2)cc1`: the GI50 was 0.014 µM and the TGI amounted to 0.569 µM.

For a further experiment, the system named is RPMI-8226 leukemia. As to the kind of experiment: DTP human tumour cell line panel, 48 h.
For the compound `OCc1ccc(N2CCCC2c2ccccc2)cc1Cl` (centres undefined), the GI50 is 4.36 µM and the TGI was 23.6 µM.

Take `COC1C=COC2(C)Oc3c(C)c(O)c4c(c3C2=O)/C(=N/C2CCC(O)OC2C)C=C(NC(=O)/C(C)=C\C(=O)C2CC2C(O)C(C)C(O)C(C)C(OC(C)=O)C1C)C4=O` (centres undefined): the TGI amounted to 5.74 µM.

Take `CC(=O)/C=C/c1cn(C(=O)OC(C)(C)C)c2ccc(Br)cc12`: the GI50 was 9.41 µM and the total growth inhibition concentration (TGI) was more than 66.5 µM.

Turning to `CCOc1ccccc1C(=O)N1CCN(c2cc(Cl)cc(Cl)c2)CC1`, the GI50 is 0.0369 µM and the TGI is 5.32 µM.

`COc1cc2c(cc1C1COc3cc4occc4cc3C1=O)OCO2` (centres undefined) returned a total growth inhibition concentration (TGI) of 30.1 µM.

As to `Cc1cc(S(=O)(=O)/N=C(/N)Nc2ccccc2O)c(SCc2ccccc2)cc1Cl`, the GI50 was 11.4 µM and the TGI stood at 52.3 µM.

On to `O=C1CCC(N2Cc3cc(CNC(=O)C(F)(F)c4ccc(Cl)cc4)ccc3C2=O)C(=O)N1` (centres undefined), for which the GI50 was more than 54.7 µM and the total growth inhibition concentration (TGI) is more than 100 µM.

`O=C(O)CN1CCN(CC(=O)O)CC(=O)[O][Hg][O]C(=O)C1`: the GI50 is 18.2 µM and the concentration for total growth inhibition (TGI) amounted to 50.5 µM.

Take `O=C1/C(=C/c2ccccc2[N+](=O)[O-])Cc2ccccc21`: the GI50 is 2.44 µM and the total growth inhibition concentration (TGI) was 7.84 µM.

`O=C(OCc1ccc2ccccc2n1)c1cn(C2CC2)c2cc(N3CCN(Cc4ccc5ccccc5n4)CC3)c(F)cc2c1=O`: the GI50 was more than 36.3 µM and the total growth inhibition concentration (TGI) is more than 64.2 µM.

The compound `O=C(O)c1ccc(C(=O)c2ccccc2)c(C(=O)O)c1` showed a TGI of more than 100 µM.

On to `Cc1ccc(/C=N\NC(=O)c2[nH]c3ccc(F)cc3c2-c2ccccc2)cc1`, for which the 50% growth inhibitory concentration (GI50) is 0.0395 µM and the TGI was more than 37.2 µM.

A further experiment deals with OVCAR-8 ovarian. As to the kind of experiment: DTP human tumour cell line panel, 48 h.
For `OCc1ccc(N2CCCC2c2ccccc2)cc1Cl` (centres undefined), the GI50 was 8.18 µM and the TGI is 30.3 µM.

`COC1C=COC2(C)Oc3c(C)c(O)c4c(c3C2=O)/C(=N/C2CCC(O)OC2C)C=C(NC(=O)/C(C)=C\C(=O)C2CC2C(O)C(C)C(O)C(C)C(OC(C)=O)C1C)C4=O` (centres undefined): the TGI was 3.89 µM.

Consider `CC(=O)/C=C/c1cn(C(=O)OC(C)(C)C)c2ccc(Br)cc12`, for which the GI50 was 16.2 µM and the TGI came to 39 µM.

As for `CCOc1ccccc1C(=O)N1CCN(c2cc(Cl)cc(Cl)c2)CC1`, the GI50 was 0.0371 µM and the total growth inhibition concentration (TGI) stood at 14.2 µM.

For `COc1cc2c(cc1C1COc3cc4occc4cc3C1=O)OCO2` (centres undefined), the concentration for total growth inhibition (TGI) was more than 100 µM.

For the compound `Cc1cc(S(=O)(=O)/N=C(/N)Nc2ccccc2O)c(SCc2ccccc2)cc1Cl`, the GI50 is 12.9 µM and the total growth inhibition concentration (TGI) is 36 µM.

Regarding `O=C1CCC(N2Cc3cc(CNC(=O)C(F)(F)c4ccc(Cl)cc4)ccc3C2=O)C(=O)N1` (centres undefined), the GI50 was 0.243 µM and the TGI is more than 100 µM.

As to `O=C(O)CN1CCN(CC(=O)O)CC(=O)[O][Hg][O]C(=O)C1`, the GI50 was 22.4 µM and the TGI was 49.4 µM.

With `O=C1/C(=C/c2ccccc2[N+](=O)[O-])Cc2ccccc21`, the GI50 was 2.12 µM and the TGI was determined as 5.4 µM.

Regarding `O=C(OCc1ccc2ccccc2n1)c1cn(C2CC2)c2cc(N3CCN(Cc4ccc5ccccc5n4)CC3)c(F)cc2c1=O`, the GI50 is 51.5 µM and the TGI is more than 100 µM.

Take `O=C(O)c1ccc(C(=O)c2ccccc2)c(C(=O)O)c1`: the TGI is more than 100 µM.

On to `Cc1ccc(/C=N\NC(=O)c2[nH]c3ccc(F)cc3c2-c2ccccc2)cc1`, for which the 50% growth inhibitory concentration (GI50) was 0.0389 µM and the TGI is more than 100 µM.

The subject of a further experiment is HCT-15 colon. As to the kind of experiment: DTP human tumour cell line panel, 48 h.
For `OCc1ccc(N2CCCC2c2ccccc2)cc1Cl` (centres undefined), the GI50 was 4.24 µM and the concentration for total growth inhibition (TGI) was determined as 20 µM.

`COC1C=COC2(C)Oc3c(C)c(O)c4c(c3C2=O)/C(=N/C2CCC(O)OC2C)C=C(NC(=O)/C(C)=C\C(=O)C2CC2C(O)C(C)C(O)C(C)C(OC(C)=O)C1C)C4=O` (centres undefined) yielded a TGI of 9.79 µM. This counts as single-digit micromolar.

As for `CC(=O)/C=C/c1cn(C(=O)OC(C)(C)C)c2ccc(Br)cc12`, the GI50 is 20.9 µM and the TGI is more than 100 µM.

As for `CCOc1ccccc1C(=O)N1CCN(c2cc(Cl)cc(Cl)c2)CC1`, the 50% growth inhibitory concentration (GI50) is 0.0322 µM and the TGI was 10.9 µM.

Regarding `COc1cc2c(cc1C1COc3cc4occc4cc3C1=O)OCO2` (centres undefined), the concentration for total growth inhibition (TGI) was more than 100 µM.

Consider `Cc1cc(S(=O)(=O)/N=C(/N)Nc2ccccc2O)c(SCc2ccccc2)cc1Cl`, for which the GI50 was 12.1 µM and the TGI was determined as 28 µM.

`O=C1CCC(N2Cc3cc(CNC(=O)C(F)(F)c4ccc(Cl)cc4)ccc3C2=O)C(=O)N1` (centres undefined): the GI50 is 0.511 µM and the concentration for total growth inhibition (TGI) is more than 100 µM.

As for `O=C(O)CN1CCN(CC(=O)O)CC(=O)[O][Hg][O]C(=O)C1`, the GI50 is 21.1 µM and the TGI was 46.5 µM.

Regarding `O=C1/C(=C/c2ccccc2[N+](=O)[O-])Cc2ccccc21`, the GI50 was 1.66 µM and the TGI stood at 4.71 µM.

For `O=C(OCc1ccc2ccccc2n1)c1cn(C2CC2)c2cc(N3CCN(Cc4ccc5ccccc5n4)CC3)c(F)cc2c1=O`, the GI50 was 62.6 µM and the total growth inhibition concentration (TGI) was more than 100 µM.

The compound `O=C(O)c1ccc(C(=O)c2ccccc2)c(C(=O)O)c1` yielded a TGI of more than 100 µM.

As to `Cc1ccc(/C=N\NC(=O)c2[nH]c3ccc(F)cc3c2-c2ccccc2)cc1`, the GI50 was 0.0288 µM.

A further experiment relates to BT-549 breast. In words: DTP human tumour cell line panel, 48 h.
As for `OCc1ccc(N2CCCC2c2ccccc2)cc1Cl` (centres undefined), the GI50 was 7.12 µM and the TGI was determined as 18.7 µM.

`COC1C=COC2(C)Oc3c(C)c(O)c4c(c3C2=O)/C(=N/C2CCC(O)OC2C)C=C(NC(=O)/C(C)=C\C(=O)C2CC2C(O)C(C)C(O)C(C)C(OC(C)=O)C1C)C4=O` (centres undefined) registered a TGI of 6.28 µM. In other words, the single-digit micromolar range.

Turning to `CC(=O)/C=C/c1cn(C(=O)OC(C)(C)C)c2ccc(Br)cc12`, the GI50 is 5.87 µM and the TGI amounted to 26.4 µM.

On to `CCOc1ccccc1C(=O)N1CCN(c2cc(Cl)cc(Cl)c2)CC1`, for which the GI50 is 0.0429 µM and the TGI stood at 4.34 µM.

`COc1cc2c(cc1C1COc3cc4occc4cc3C1=O)OCO2` (centres undefined) displayed a TGI of more than 100 µM.

In the case of `Cc1cc(S(=O)(=O)/N=C(/N)Nc2ccccc2O)c(SCc2ccccc2)cc1Cl`, the GI50 is 8.2 µM and the total growth inhibition concentration (TGI) was 22.8 µM.

Turning to `O=C1CCC(N2Cc3cc(CNC(=O)C(F)(F)c4ccc(Cl)cc4)ccc3C2=O)C(=O)N1` (centres undefined), the GI50 is 0.237 µM and the TGI was more than 74.2 µM.

Regarding `O=C(O)CN1CCN(CC(=O)O)CC(=O)[O][Hg][O]C(=O)C1`, the GI50 was 19.5 µM and the TGI was 34.8 µM.

Regarding `O=C1/C(=C/c2ccccc2[N+](=O)[O-])Cc2ccccc21`, the GI50 was 1.83 µM and the total growth inhibition concentration (TGI) amounted to 4.49 µM.

In the case of `O=C(OCc1ccc2ccccc2n1)c1cn(C2CC2)c2cc(N3CCN(Cc4ccc5ccccc5n4)CC3)c(F)cc2c1=O`, the GI50 is 23.1 µM and the TGI stood at 68 µM.

Regarding `O=C(O)c1ccc(C(=O)c2ccccc2)c(C(=O)O)c1`, the TGI is more than 100 µM.

For `Cc1ccc(/C=N\NC(=O)c2[nH]c3ccc(F)cc3c2-c2ccccc2)cc1`, the GI50 is 0.034 µM and the total growth inhibition concentration (TGI) turned out to be 7.29 µM.
